Results from US4213983A, “Treating gastro-intestinal disorders and emesis with n-(heterocyclic substituted) benzamides” (Beecham Group Limited, priority 1976, dated 1980).

Assays:
[1] = tested on: emetic response to apomorphine hydrochloride; assay: Abolition of the emetic response to apomorphine hydrochloride; type: in vivo; details: Canis lupus familiaris, sc; S.C.; dog; apomorphine hydrochloride 0.1 mg/kg subcutaneously; active doses (mg/kg); read-out: Anti-Emetic ED 50
Procedure: 2. Compounds were also tested for abolition of the emetic response to apomorphine hydrochloride (0.1 mg/kg subcutaneously) in the dog

[2] = tested on: apomorphine induced delay in gastric emptying; assay: Increase in gastric emptying - reversal of apomorphine induced delay in gastric emptying of a test meal; type: in vivo, rat; details: S.C.; rats with chronic gastric fistula; Apomorphine HCl 5 mg/kg subcutaneously 15 minutes prior; active doses (mg/kg)
Procedure: (§1) 1. Compounds prepared in the Examples were tested for the following pharmacological activities in the rat:
(b) Increase in gastric emptying-reversal of apomorphine induced delay in gastric emptying of a test meal.
Rats equipped with chronic gastric fistula were used and it was through this that 5 ml of a test meal (5 ml phosphate buffer at pH 9) was administered and recovered. The % recovery of the standard meal after remaining in the stomach for 10 minutes was taken as an index of gastric emptying. Delay in gastric emptying was induced by the administration of Apomorphine HCl (5 mg/kg subcutaneously) and was given 15 minutes prior to the administration of the Compound. The % recoveries of the test meal was determined at 15-25 and 45-55 minutes post dosing with the Compound and compared with vehicle only dosed animals set up simultaneously. Six animals were used for each group.

intragastric pressure = assay: Increase in intragastric pressure; type: in vivo, rat; details: conscious restrained rats with gastric fistula, 40 minutes after administration, active doses (mg/kg)
Procedure: as §1
(a) Increase in intragastric pressure
Intragastric pressure changes were recorded from previously starved conscious and restrained rats using a saline filled catheter inserted into the lumen of the stomach via a permanent gastric fistula. The catheter was connected to a physiological pressure transducer and pressure changes recorded on a hot wire pen recorder. In each animal a pre-dose period of 40 minutes was allowed to obtain a measure of spontaneous activity. An index of activity was obtained by measuring the average height of pressure waves during 10 minute periods. Values for 4 such periods were obtained during assessment of spontaneous activity and for the 40 minute period after the administration of the Compounds. Student "t" test was applied to the difference in average values obtained for spontaneous and post Compound activity.

dopamine receptor = assay: Inhibition of stereotype behaviour induced by apomorphine; type: in vivo, rat; details: for Inhibition of Stereo-Type Behaviour, active dose: S.C., rat, active doses (mg/kg); for Inhibition of Stereo-Type Behaviour, number of rats: at 50mg S.C.
Procedure: as §1
(c) Inhibition of stereotype behaviour induced by apomorphine.
This is indicative of dopamine receptor blockade in the central nervous system.
The method of Ernst A. M. (1967) Pyschopharmocologia (Berl.) 10 pp. 316-323 was followed.

SMILES | ED50 [1] [mg/kg] | Increase in Gastric Emptying, active dose [2] [mg] | Increase in Intra-Gastric Pressure, active dose (intragastric pressure; P.O.) [mg] | Increase in Intra-Gastric Pressure, active dose (intragastric pressure; S.C.) [mg] | Inhibition of Stereo-Type Behaviour, active dose (dopamine receptor) [mg] | Inhibition of Stereo-Type Behaviour, number of rats (dopamine receptor)
COc1cc(N)c(Cl)cc1C(=O)NC1CCN2CCCCC2C1 (stereo not drawn) [Example 2, 4-Amino-5-chloro-2-methoxy-N-(2-quinolizidinyl)-benzamide] | 0.7 | 25 | 50 | 2.5 | 15 | –
COc1cc(N)c(Cl)cc1C(=O)NC1CCN2CCCC2C1 (stereo not drawn) [Example 4, 4-Amino-5-chloro-2-methoxy-N-(7-octahydro-indolizinyl)-benzamide] | < 2 | 50 | – | 5 | 50 | 4 out of 7 rats
COc1cc(N)c(Cl)cc1C(=O)NC1CCC2CCCCN2C1 (stereo not drawn) [Example 6, 4-Amino-5-chloro-2-methoxy-N-(3-quinolizidinyl)-benzamide] | 1.4 | – | – | – | 50 | 3 out of 7 rats
COc1cc(N)c(Cl)cc1C(=O)NC1CCCN2CCCCC12 (stereo not drawn) [Example 8b, 4-Amino-5-chloro-2-methoxy-N-(1-quinolizidinyl)-benzamide] | < 2 | – | – | – | 50 | –
COc1cc(N)c(Cl)cc1C(=O)NC1CCN2CCc3ccccc3C2C1 (stereo not drawn) [Example 10, 4-Amino-5-chloro-N-[2-(2H-benzo[a]-quinolizine-1,3,4,6,7,11b-hexahydro)]-2-methoxy-benzamide] | – | 50 | – | – | – | –
COc1cc(N)c(Cl)cc1C(=O)NN1CCN2CCCCC2C1 (stereo not drawn) [Example 12] | 2 | – | – | – | – | –
COc1cc(N)c(Cl)cc1C(=O)NC1CC2CCCCN2C1 (stereo not drawn) [Example 14, 4-Amino-5-chloro-2-methoxy-N-(2-octahydroindolizinyl)-benzamide] | < 2 | 50 | – | – | 50 | –
COc1cc(N)c(Cl)cc1C(=O)NC1CCN2C(C)CCCC2C1 (stereo not drawn) [Example 16, 4-Amino-5-chloro-2-methoxy-N-(6-methyl-2-quinolizidinyl)-benzamide] | – | – | – | 1 | – | –
